Data on 3 compounds can be found in paper PMC8291587, “Guanidine Derivatives: How Simple Structural Modification of Histamine H3R Antagonists Has Led to the Discovery of Potent Muscarinic M2R/M4R Antagonists” (ACS Chemical Neuroscience, 2021).

Read-outs that look alike come from different tables or passages of the source.

The target in one assay is T1, hM1R (Homo sapiens, UniProt P11229).
T1 construct: host or cells: CHO cells, stably transfected; crude membranes
T1 sequence (P11229 1-460): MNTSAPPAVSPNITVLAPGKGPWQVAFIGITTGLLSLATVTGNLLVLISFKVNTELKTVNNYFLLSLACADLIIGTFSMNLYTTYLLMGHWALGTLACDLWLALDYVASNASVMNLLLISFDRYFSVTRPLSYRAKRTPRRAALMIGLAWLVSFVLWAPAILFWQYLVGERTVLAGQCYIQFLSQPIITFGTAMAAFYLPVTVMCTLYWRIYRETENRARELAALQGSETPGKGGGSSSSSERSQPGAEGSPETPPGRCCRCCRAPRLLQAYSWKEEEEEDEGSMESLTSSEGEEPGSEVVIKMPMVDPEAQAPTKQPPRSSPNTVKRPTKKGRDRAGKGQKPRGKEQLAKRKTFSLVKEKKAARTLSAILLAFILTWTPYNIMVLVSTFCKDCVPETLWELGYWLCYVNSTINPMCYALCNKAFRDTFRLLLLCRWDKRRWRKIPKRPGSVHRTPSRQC
In words: hM1R radioligand binding ([3H]NMS, CHO cell membranes). As to the method: To clearly explain the obtained outcome, we engaged the radioligand binding experiment. The hM1–hM5 radioligand binding experiments were performed in the membrane fractions of Chinese hamster ovary cells (CHO) stably expressing human variants of muscarinic receptors. N-[^3H]Methylscopolamine was used as the radiolabeled ligand.[39] Three compounds were selected from ex vivo screening on guinea pig ileum. […] This compound is also not completely selective for the remaining muscarinic receptor subtypes with −log Ki values over 6. […] It is also a potent muscarinic M1R antagonist, and the M1R/M2R selectivity ratio is <10. It is worth noting that such nonspecific anticholinergics are often associated with neuropsychiatric and cognitive disturbances and that nonselective muscarinic M1R/M2R antagonists, such as scopolamine, can produce cognitive deficits. Further structural modifications of ADS10227 should be used to increase selectivity toward the M2R, as these may present fewer potential side effects associated with the activation of the phospholipase C signaling pathway.
The culture was derived from CHO cells stably transfected with the genes of human variants of muscarinic receptors. These were purchased from Missouri S&T cDNA Resource Center (Rolla, MO, USA). Cell cultures and crude membranes were prepared as described previously.[45] The cells were grown to confluence in 75 cm^2 flasks in Dulbecco’s modified Eagle’s medium (DMEM) supplemented with 10% fetal bovine serum, and 2 million cells were subcultured to 100 mm Petri dishes. The medium was supplemented with 5 mM butyrate for the last 24 h of cultivation to increase receptor expression. Cells were detached by mild trypsinization on day 5 after subculture. Detached cells were washed twice in 50 mL of phosphate-buffered saline and 3 min centrifugation at 250g. […]
All radioligand binding experiments were optimized and carried out according to general guidelines.[39] […] N-Methylscopolamine binding was measured directly in saturation experiments using six concentrations (30–1000 pM) of [^3H]NMS during incubation for 1 h (M2R), 3 h (M1R, M3R, and M4R), or 5 h (M5R). For calculations of the equilibrium dissociation constant (KD), concentrations of free [^3H]NMS were calculated by subtraction of bound radioactivity from total radioactivity in the sample and fitting eq 1 (Experimental Data analysis section). The binding of the tested ligands was determined in competition experiments with 100 pM [^3H]NMS. […] Nonspecific binding was determined in the presence of 1 μM unlabeled atropine. […]

The target in the next assay is T2, hH3R (Homo sapiens, UniProt Q9Y5N1).
T2 construct: expressed in transfected cells; membrane fractions
T2 sequence (Q9Y5N1 whole entry): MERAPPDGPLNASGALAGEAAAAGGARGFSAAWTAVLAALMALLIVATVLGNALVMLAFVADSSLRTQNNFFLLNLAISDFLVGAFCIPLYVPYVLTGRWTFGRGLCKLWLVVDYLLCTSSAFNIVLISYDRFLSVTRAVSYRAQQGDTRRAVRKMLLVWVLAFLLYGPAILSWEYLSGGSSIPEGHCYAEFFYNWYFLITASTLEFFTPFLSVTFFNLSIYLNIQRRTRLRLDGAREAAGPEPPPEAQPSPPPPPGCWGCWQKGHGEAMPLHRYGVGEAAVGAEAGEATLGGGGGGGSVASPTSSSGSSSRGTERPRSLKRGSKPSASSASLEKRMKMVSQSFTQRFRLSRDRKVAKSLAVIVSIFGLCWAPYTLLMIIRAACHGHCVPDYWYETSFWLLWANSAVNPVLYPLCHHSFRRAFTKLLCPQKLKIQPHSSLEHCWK
In words: hH3R radioligand displacement binding assay ([3H]-Nα-methylhistamine, HEK-293 cell membranes). As to conditions: [3H]-Nα-methylhistamine; HEK-293 membranes; read-out: hH3R -log(Ki) ± sem (converted). The method, then:
[^3H]-N^α-Methylhistamine was used as a radiolabeled ligand.
The radioligand displacement binding assay was performed in membrane fractions of HEK-293 cells stably expressing hH3R. Cell cultivation and membrane preparation were performed according to Kottke et al.[43] […] The total assay volume was set to 200 μL. The compounds were tested in several appropriate concentrations between 100 μM and 0.1 nM. Pipetting was partly done by Freedom Evo (Tecan). […] The membrane fraction (20 μg/well), test compounds, and radiolabeled ligand were incubated for 90 min at 25 °C while shaking. The bound radioligand was separated from free radioligand by filtration through GF/B filters pretreated with 0.3% (m/v) polyethylenimine using a cell harvester. Radioactivity was determined by liquid scintillation counting using a MicroBeta Trilux (PerkinElmer). The data were obtained in duplicates in at least three independent experiments. Nonspecific binding was subtracted from the raw data to calculate specific-binding values. The evaluation was performed with GraphPad Prism 6.1 (San Diego, CA, USA) using nonlinear regression (one-site competition with a logarithmic scale). The Ki values were calculated from the IC50 values using the Cheng–Prusoff equation.[44] The statistical calculations were performed on −log Ki. The mean values and 95% confidence intervals were transformed to nanomolar concentrations.
(In general: Displacement assays read how much labelled ligand stays bound in the presence of the test substance.)

The mark [1] stands for this setting: read-out: hM1R -log(Ki) ± sem (converted).

`N=C(N)N(CCCCN1CCN(CCCCCCCOc2ccccc2)CC1)Cc1ccccc1` [ADS1017] gave an inhibitory constant (Ki) on hM1R (hM1R -log(Ki) ± sem) of 141 nM.

`N=C(N)N(CCCCN1CCN(C[C@H]2CC[C@@H](COc3ccccc3)CC2)CC1)Cc1ccccc1` [ADS10227, 1-{4-{4-{[4-(phenoxymethyl)cyclohexyl]methyl}piperazin-1-yl}but-1-yl}-1-(benzyl)guanidine]: the Ki was 19.5 nM at hM1R (setting [1]) and 5890 nM on hH3R.

For `[H]/N=C(/N)N(CCCCN1CCN(CC2CCC(COc3ccccc3)CC2)CC1)Cc1ccc(C(F)(F)F)cc1` (stereo not drawn) [ADS10239], the Ki on hM1R (read-out: affinity to hM1R (Ki)) was 45 nM; at hM1R (setting [1]), 46.8 nM; at hH3R it was 2340 nM.

What is called Ki is a dissociation constant, usually derived from enzyme kinetics or from competition with a known ligand.
